Assay results as given in patent publication US8808728B2, “Feed additive for laying hen and feed containing the same” (Unitika Ltd., priority 2004, dated 2014).
Like-named read-outs stand apart in the source and are kept apart here.

Tests used:
[1] = Solubility in water of calcium salts; format: physicochemical
Source text: The solubility in water of the calcium lactobionate thus obtained was compared with those of other calcium salts (manufactured by Wako Pure Chemical Industries).

laying hens [2] = experiment: Test Example 4: feeding of feeds of Examples 12 to 14 to laying hens aged 500 days for 60 days; format: in vivo; settings: Boris Brown hens aged 500 days, fed 60 days
Experimental: (§1) Ten laying hens aged 470 days (laying white leghorn hens (Julia)) were fed with each of the feeds prepared in Examples 2 to 5 for 60 days and the egg-laying rate, the egg breakage and egg cracking rate and eggshell strength were measured. The egg-laying rate was determined in accordance with the following Equation 1, while the egg breakage and egg cracking rate were determined in accordance with the following Equation 2. Eggshell strength was determined by horizontally placing an egg and measuring the bursting strength with a rheometer. A feed containing no feed additive for laying hens was also prepared as a control. […] Egg-laying rate=(total number of eggs in each test lot/total number of eggs in control lot)×100 [Equation 1] Egg breakage/cracking rate=(number of broken or cracked eggs/total number of eggs yield)×100 [Equation 2]
Four laying hens aged 500 days (Boris Brown) were fed with each of the feeds prepared in Examples 12 to 14 for 60 days and the egg-laying rate and the eggshell strength were measured in the same manner as in Examples 2 to 5. […]

laying hens [3] = format: in vivo; settings: feed without calcium carbonate and di-lime phosphate; hens aged 470 days, fed 60 days
Experimental: as §1
Ten laying hens aged 470 days (laying white leghorn hens (Julia)) were fed with each of the feeds prepared in Examples 10 and 11 for 60 days and the egg-laying rate, the egg breakage and egg cracking rate and eggshell strength were measured in the same manner as in Examples 2 to 5. […]

Compound	Solubilities in water ([1]; water) [g/100 mL]	Solubilities in water [1] [g/100 mL]	Eggshell strength (laying hens [2])	Eggshell strength (laying hens [3])
O=C([O-])[C@H](O)[C@@H](O)[C@H](O)[C@H](O)CO.O=C([O-])[C@H](O)[C@@H](O)[C@H](O)[C@H](O)CO.[Ca+2] [Ca gluconate, reference compound]	3.8			
O=C([O-])[C@H](O)[C@@H](O)[C@H](O[C@@H]1O[C@H](CO)[C@H](O)[C@H](O)[C@H]1O)[C@H](O)CO.O=C([O-])[C@H](O)[C@@H](O)[C@H](O[C@@H]1O[C@H](CO)[C@H](O)[C@H](O)[C@H]1O)[C@H](O)CO.[Ca+2] [Ca lactobionate, calcium lactobionate]		>40	eggshell reinforcing effect could be obtained	showed an effect of reinforcing eggshells
